Measurements from publication PMC11091889, “Silver Organometallics that are Highly Potent Thioredoxin and Glutathione Reductase Inhibitors: Exploring the Correlations of Solution Chemistry with the Strong Antibacterial Effects” (ACS Infectious Diseases, 2024).

Tests used:
[1] = Conductometry: molar conductivity of silver complexes in DMSO; type: physicochemical; conditions: 1.0 mM in DMSO, calculated as monocarbene (NHC)AgX
Protocol: Since both the neutral monocarbene and the ionic biscarbene form of the complexes may exist in various proportions in the solution, conductometry studies were performed to reveal the dominant structure. The molar conductivity of 1.0 mM solutions of each complex in DMSO was determined after different periods up to 24 h using AgNO3 as 1:1 electrolyte reference (see Table 1). According to the literature, the expected range of molar conductivity for 1:1 electrolytes in DMSO is 35–90 S cm^2 mol^–1.[45],[46]
Conductivity measurements were performed using an Apera Instruments EC9500 conductivity meter. Solutions (as indicated, otherwise 1.0 mM) of all compounds were prepared using freshly distilled DMSO with a specific electrical conductivity of ≤3 × 10^–8 S cm^–1. The conductivities were measured at 25 ± 2 °C immediately after complete dissolution and after 24 h.

[2] = test system: E. coli (DSM1116, ATCC 9637); test: microbe, parasite or virus in culture; type: cell-based, Escherichia coli; conditions: n = 3, MHB; for EC50 / MIC E. coli: mean ± standard error; for MIC E. coli / MIC E. coli (value in brackets): 22 h
Protocol: (§1) The antibacterial effect of the silver NHC complexes and selected ligands was evaluated in two Gram-positive [Enterococcus faecium, methicillin resistant S. aureus, (MRSA)] and in four Gram-negative (Acinetobacter baumannii, Escherichia coli, Klebsiella pneumoniae, and Pseudomonas aeruginosa) pathogenic bacterial strains using broth microdilution assays. The resulting minimal inhibitory concentrations (MICs, Table 2) and EC50 (Table S6) were determined by a curve fitting procedure. Silver nitrate (AgNO3), SSD, and various antibiotics were used as references.
(§2) The following strains of ESKAPE panel were utilized and maintained at 37 °C in MHB (21 g/L Müller Hinton broth, pH 7.4) or TSY (30 g/L trypticase soy broth, 3 g/L yeast extract, pH 7.0–7.2) media: A. baumannii (DSM 30007, ATCC 19606), E. coli (DSM1116, ATCC 9637), K. pneumoniae (DSM 11678, ATCC33495), P. aeruginosa PA7 (DSM 24068) in MHB; E. faecium (DSM 20477, ATCC 19434), and S. aureus MRSA (DSM 11822, ICB 25701) in TSY. MIC values were determined following a standardized protocol in broth microdilution assays. The compounds and reference substances (AgNO3 and SSD) were serially diluted from 64 to 1 μg/mL. Starting inocula of 2–8 × 10^5 CFU/mL in MHB or TSY media at 37 °C were used, and serial dilutions were carried out in 96-well microtiter plates in duplicate. After incubation of the plates for 22 h at 37 °C, the absorbance at 600 nm was measured using The Spark multimode microplate reader (Tecan Trading AG). The MIC values for the tested compounds were determined in three independent experiments and presented in μM with standard errors and also in μg/mL. Amikacin (P. aeruginosa), linezolid (S. aureus), and ciprofloxacin (all other strains) served as positive controls. The MIC and EC50 values were determined by curve fitting with Sigma Plot. To determine the effect of the culture medium on the activity of silver compounds, the assay was performed using MHB, TSY, or DMEM (Gibco). To observe the effect of individual components of TSY medium, antibacterial tests were performed using MHB with addition of tryptone (17 g/L) or yeast extract (3 g/L, both were purchased from Sigma).

[3] = test system: P. aeruginosa PA7 (DSM 24068); test: microbe, parasite or virus in culture; type: cell-based, Pseudomonas aeruginosa; conditions: n = 3, MHB; for MIC P. aeruginosa / EC50: mean ± standard error; for MIC P. aeruginosa / MIC P. aeruginosa (value in brackets): 22 h; for EC50: read-out: EC50 P. aeruginosa
Protocol: as §1, §2

[4] = test system: K. pneumoniae (DSM 11678, ATCC33495); test: Broth microdilution antibacterial assay; type: cell-based, Klebsiella pneumoniae; conditions: n = 3, MHB; for MIC K. pneumoniae / EC50: mean ± standard error; for MIC K. pneumoniae / MIC K. pneumoniae (value in brackets): 22 h; for EC50: read-out: EC50 K. pneumoniae
Protocol: as §1, §2

[5] = test system: A. baumannii (DSM 30007, ATCC 19606); test: Broth microdilution antibacterial assay; type: cell-based, Acinetobacter baumannii; conditions: n = 3, MHB; for MIC A. baumannii / EC50: mean ± standard error; for MIC A. baumannii / MIC A. baumannii (value in brackets): 22 h; for EC50: read-out: EC50 A. baumannii
Protocol: as §1, §2

[6] = test system: S. aureus MRSA (DSM 11822, ICB 25701); test: microbe, parasite or virus in culture; type: cell-based, methicillin resistant S. aureus; conditions: n = 3, TSY; for MIC MRSA / EC50: mean ± standard error; for MIC MRSA / MIC MRSA (value in brackets): 22 h; for EC50: read-out: EC50 MRSA
Protocol: as §1
The importance of the culture medium used in antibacterial assays has been pointed out for antibiotics and in particular for silver.[53]−[55] In our recent studies, tryptic soy yeast (TSY) broth has been used for growing Gram-positive bacteria. Two components thereof, tryptone and yeast extract, have been reported to affect the antibacterial activity of silver nitrate.[55] Moreover, such an effect was also observed for other media containing at least one of those components.[11],[53] […] Silver nitrate served as a reference, and three different growth media were studied, namely, Müller-Hinton Broth (MHB, commonly used for Gram-negative bacteria), TSY broth (commonly used for Gram-positive bacteria), and DMEM supplemented with 10% FCS (commonly used for growth of mammalian and human cells).
as §2

[7] = test system: E. faecium (DSM 20477, ATCC 19434); test: Broth microdilution antibacterial assay; type: cell-based, Enterococcus faecium; conditions: n = 3, TSY; for MIC E. faecium / EC50: mean ± standard error; for MIC E. faecium / MIC E. faecium (value in brackets): 22 h; for EC50: read-out: EC50 E. faecium
Protocol: as §1, §2

CCn1[c](=[Ag][Cl])n(Cc2ccccn2)c2ccccc21 [2a, Chlorido (1-Ethyl-3-(pyridin-2-ylmethyl)-benzimidazol-2-ylidene) Silver(I)]
Molar conductivity ΛM ([1]; 1 h after dissolution): 3.47 S cm^2 mol^–^1
Molar conductivity ΛM ([1]; 24 h after dissolution): 3.03 S cm^2 mol^–^1
EC50 [2]: 33.3 ± 4.7 µM
MIC E. coli [2]: 56.0 ± 14.0 µM
MIC E. coli (value in brackets) [2]: 21 µg/mL
MIC P. aeruginosa [3]: 10.5 ± 0.0 µM
EC50 [3]: 6.4 ± 0.5 µM
MIC P. aeruginosa (value in brackets) [3]: 4 µg/mL
MIC K. pneumoniae [4]: 17.5 ± 3.5 µM
EC50 [4]: 12 ± 0.9 µM
MIC K. pneumoniae (value in brackets) [4]: 7 µg/mL
MIC A. baumannii [5]: 10.5 ± 0.0 µM
EC50 [5]: 2.4 ± 0.1 µM
MIC A. baumannii (value in brackets) [5]: 4 µg/mL
MIC MRSA [6]: 168 ± 0.0 µM
EC50 [6]: 98.5 ± 0.8 µM
MIC MRSA (value in brackets) [6]: 64 µg/mL
MIC E. faecium [7]: 168 ± 0.0 µM
EC50 [7]: 132 ± 6.8 µM
MIC E. faecium (value in brackets) [7]: 64 µg/mL

[Br][Ag][c]1n(Cc2ccccn2)c2ccccc2[n+]1Cc1ccccn1 [6b]
Molar conductivity ΛM ([1]; 1 h after dissolution): 6.13 S cm^2 mol^–^1
Molar conductivity ΛM ([1]; 24 h after dissolution): 6.50 S cm^2 mol^–^1
EC50 [2]: 14.6 ± 1 µM
MIC E. coli [2]: 21.9 ± 5.5 µM
MIC E. coli (value in brackets) [2]: 10 µg/mL
MIC P. aeruginosa [3]: 27.3 ± 5.5 µM
EC50 [3]: 13.5 ± 3.7 µM
MIC P. aeruginosa (value in brackets) [3]: 13 µg/mL
MIC K. pneumoniae [4]: 13.7 ± 0.0 µM
EC50 [4]: 6.4 ± 0.2 µM
MIC K. pneumoniae (value in brackets) [4]: 7 µg/mL
MIC A. baumannii [5]: 8.2 ± 0.0 µM
EC50 [5]: 0.47 ± 0.02 µM
MIC A. baumannii (value in brackets) [5]: 4 µg/mL
MIC MRSA [6]: 132 ± 0.0 µM
EC50 [6]: 90.7 ± 4.5 µM
MIC MRSA (value in brackets) [6]: 64 µg/mL
MIC E. faecium [7]: 132 ± 0.0 µM
EC50 [7]: 105 ± 0.1 µM
MIC E. faecium (value in brackets) [7]: 64 µg/mL

[Br][Ag]=[c]1n(Cc2ccccc2)c2ccccc2n1Cc1ccccn1 [5b, Bromido (1-(Pyridin-2-ylmethyl)-3-benzyl-benzimidazol-2-ylidene) Silver(I)]
Molar conductivity ΛM ([1]; 1 h after dissolution): 6.58 S cm^2 mol^–^1
Molar conductivity ΛM ([1]; 24 h after dissolution): 5.68 S cm^2 mol^–^1
EC50 [2]: 27.1 ± 1.2 µM
MIC E. coli [2]: 32.8 ± 0.0 µM
MIC E. coli (value in brackets) [2]: 16 µg/mL
MIC P. aeruginosa [3]: 65.7 ± 0.0 µM
EC50 [3]: 28.2 ± 2.7 µM
MIC P. aeruginosa (value in brackets) [3]: 32 µg/mL
MIC K. pneumoniae [4]: 16.4 ± 0.0 µM
EC50 [4]: 9.5 ± 0.3 µM
MIC K. pneumoniae (value in brackets) [4]: 8 µg/mL
MIC A. baumannii [5]: 16.4 ± 0.0 µM
EC50 [5]: 0.72 ± 0.15 µM
MIC A. baumannii (value in brackets) [5]: 8 µg/mL
MIC MRSA [6]: 131 ± 0.0 µM
EC50 [6]: 75.5 ± 1.4 µM
MIC MRSA (value in brackets) [6]: 64 µg/mL
MIC E. faecium [7]: 131 ± 0.0 µM
EC50 [7]: 111 ± 0.2 µM
MIC E. faecium (value in brackets) [7]: 64 µg/mL

[Cl][Ag][c]1n(Cc2ccccn2)c2ccccc2[n+]1Cc1ccccn1 [6a]
Molar conductivity ΛM ([1]; 1 h after dissolution): 3.75 S cm^2 mol^–^1
Molar conductivity ΛM ([1]; 24 h after dissolution): 4.15 S cm^2 mol^–^1
EC50 [2]: 38.1 ± 6.9 µM
MIC E. coli [2]: 48.1 ± 12.0 µM
MIC E. coli (value in brackets) [2]: 21 µg/mL
MIC P. aeruginosa [3]: 60.1 ± 12.0 µM
EC50 [3]: 33.6 ± 5.8 µM
MIC P. aeruginosa (value in brackets) [3]: 27 µg/mL
MIC K. pneumoniae [4]: 9.02 ± 0.0 µM
EC50 [4]: 5.9 ± 0.2 µM
MIC K. pneumoniae (value in brackets) [4]: 4 µg/mL
MIC A. baumannii [5]: 9.0 ± 0.0 µM
EC50 [5]: 1.6 ± 0.1 µM
MIC A. baumannii (value in brackets) [5]: 4 µg/mL
MIC MRSA [6]: 144 ± 0.0 µM
EC50 [6]: 91.3 ± 0.6 µM
MIC MRSA (value in brackets) [6]: 64 µg/mL
MIC E. faecium [7]: 144 ± 0.0 µM
EC50 [7]: 133 ± 0.6 µM
MIC E. faecium (value in brackets) [7]: 64 µg/mL

[Cl][Ag][c]1n(Cc2ccccc2)c2ccccc2[n+]1Cc1ccccn1 [5a]
Molar conductivity ΛM ([1]; 1 h after dissolution): 4.24 S cm^2 mol^–^1
Molar conductivity ΛM ([1]; 24 h after dissolution): 3.70 S cm^2 mol^–^1
EC50 [2]: 35.1 ± 1.1 µM
MIC E. coli [2]: 60.2 ± 12.0 µM
MIC E. coli (value in brackets) [2]: 27 µg/mL
MIC P. aeruginosa [3]: 30.1 ± 6.0 µM
EC50 [3]: 16 ± 1.7 µM
MIC P. aeruginosa (value in brackets) [3]: 13 µg/mL
MIC K. pneumoniae [4]: 18.1 ± 0.0 µM
EC50 [4]: 8.5 ± 1 µM
MIC K. pneumoniae (value in brackets) [4]: 8 µg/mL
MIC A. baumannii [5]: 9.0 ± 0.0 µM
EC50 [5]: 1.7 µM
MIC A. baumannii (value in brackets) [5]: 4 µg/mL
MIC MRSA [6]: 145 ± 0.0 µM
EC50 [6]: 82.9 ± 1.5 µM
MIC MRSA (value in brackets) [6]: 64 µg/mL
MIC E. faecium [7]: 145 ± 0.0 µM
EC50 [7]: 119 ± 3.6 µM
MIC E. faecium (value in brackets) [7]: 64 µg/mL

Cn1[c](=[Ag][Br])n(Cc2ccccn2)c2ccccc21 [1b, Bromido (1-Methyl-3-(pyridin-2-ylmethyl)-benzimidazol-2-ylidene) Silver(I)]
Molar conductivity ΛM ([1]; 1 h after dissolution): 4.75 S cm^2 mol^–^1
Molar conductivity ΛM ([1]; 24 h after dissolution): 4.82 S cm^2 mol^–^1
EC50 [2]: 71.3 ± 6.7 µM
MIC E. coli [2]: 103 ± 25 µM
MIC E. coli (value in brackets) [2]: 43 µg/mL
MIC P. aeruginosa [3]: 25.9 ± 6.5 µM
EC50 [3]: 10.9 ± 3.9 µM
MIC P. aeruginosa (value in brackets) [3]: 11 µg/mL
MIC K. pneumoniae [4]: 16.2 ± 3.2 µM
EC50 [4]: 10 ± 2.2 µM
MIC K. pneumoniae (value in brackets) [4]: 7 µg/mL
MIC A. baumannii [5]: 16.2 ± 3.2 µM
EC50 [5]: 2.6 ± 0.3 µM
MIC A. baumannii (value in brackets) [5]: 7 µg/mL
MIC MRSA [6]: 156 ± 0.0 µM
EC50 [6]: 134 ± 14 µM
MIC MRSA (value in brackets) [6]: 64 µg/mL
MIC E. faecium [7]: 156 ± 0.0 µM
EC50 [7]: 129 ± 2.8 µM
MIC E. faecium (value in brackets) [7]: 64 µg/mL
